Measurements as given in PMC13538172, “Zonisamide nanodiamonds for brain targeting: A comprehensive study utilising in silico, in vitro, in vivo, and molecular investigation for successful nose-to-brain delivery for epilepsy management” (Drug Delivery and Translational Research, 2025).
Values joined by “and” are separate entries in the source; they are usually repeats but may differ in a detail not shown here. Equal entries are not always repeated.

Tests used:
[1] = In vitro drug release, Franz diffusion cell with dialysis bag; type: physicochemical; conditions: PBS pH 7.4, 37 ± 0.5 °C
Description: The in vitro release study utilized a Franz diffusion cell with a diffusion area of 1.77 cm^2 [44]. The receptor compartment contained 7.5 ml phosphate buffer (PBS) pH 7.4, simulating the pH at the release site in the brain [45, 46], and the system was equilibrated at 37 ± 0.5 °C by a circulating water jacket. […] At certain time intervals (0, 0.25, 0.5, 0.75, 1, 2, 4, 8, 12, 24, 36, 48, and 72 h), 0.5 ml samples were aliquoted from the receptor compartment and replaced with equal volumes of fresh medium to maintain a constant volume. Samples were filtered using a 0.22 μm filter and analyzed spectrophotometrically as previously described. In order to understand the barrier presented by the dialysis membrane, the in vitro release study of unformulated ZNS (free drug) solution in distilled water of the same concentration (1mg/ml w/v) was carried out similarly in a separate setup, all release experiments were done in triplicates, and the release data were fitted to various release kinetic models: zero, first, Higuchi diffusion, and Hixson–Crowell and Korsmeyer–Peppas models.

[2] = Brain uptake, biodistribution and pharmacokinetics of 99mTc-radiolabelled ZNS in mice; type: in vivo, male Swiss albino mice; conditions: for Cmax (%ID/g), blood / Cmax (%ID/g), brain: n = 6
Description: Then, 100 μL of freshly eluted ^99mTc-pertechnetate; 99mTcO4- (200 MBq) was added to the above mixture, and the reaction mixture was vigorously shaken for 15 minutes. Radiochromatographic analysis was developed using the ascending paper chromatography (PC) technique to monitor the radiochemical purity of the ^99mTc-labelled compound using two distinct mobile phases; acetone was used to detect free pertechnetate, which migrated to Rf = 1, while the other component remained at Rf = 0 and a second mobile phase, comprising NH4OH, C2H5OH, and H2O (1:2:5), was used to determine the reduced hydrolyzed (R-H) 99mTc-colloid, which remained at Rf = 0, whereas ^99mTc-labelled compound and free pertechnetate migrated to Rf = 1 [7, 47]. Two drops of the reaction product and free 99mTcO4 were placed on two strips of Whatman PC on the origin line, 2 cm far from the base, to be developed by developing solvents. The experiments were conducted in triplicate to ensure the reproducibility and reliability of the results. As the developing process was terminated, the strip was dried, trimmed into 1 cm size pieces, and counted using the sodium iodide (NaI) γ-ray scintillation counter (A good-type NaI scintillation γ-Counter model scalar rate meter SR7 (Nuclear Enterprises Ltd., USA). The radiochemical yield percent of ^99mTc–ZNS was calculated using Eq. (3)3 %Radiochemicalyield=100-%Free99mTc-%colloid99mTc
The experiment protocol was approved by the University of October for Modern Sciences and Arts (MSA) ethical committee (Pt2/Ec2/2022PD), where the principles of the Declaration of Helsinki were followed. The mice were maintained in cabins of a size that suits groups of five at room temperature with a 12 h light/dark cycle and accessibility to food and water ad libitum. The mice were divided into four groups. Mice in group 1 served as a control and received no treatments. Mice in group 2 were given ZNS orally using an oral gavage (100 μL). Mice in group 3 were injected intranasally with ^99mTc–ND-ZNS complex in each nostril (100 μL) with the help of a micropipette attached with a low-density polyethene tube having 0.1 mm internal diameter at the delivery site. Mice in group 4 were injected intranasally free ^99mTc–-ZNS similarly. The mice were held from the back in a slanted position during nasal administration of the formulations. Next, mice were anesthetized by chloroform at 5, 15, 30, 60, 120 min post-injection (n=6 mice/time point). Samples of fresh blood and different organs were collected, washed twice using saline solution, made free from adhering tissue/fluid, and weighed. The radioactivity in each tissue/organ was measured using a shielded well-type gamma scintillation counter. The radiopharmaceutical uptake per gram in each tissue/organ was calculated as a fraction of the administered dose. Percent injected dose per gram organ and body fluid (mean %ID per gram organ and body fluid ± SD) in a population of six mice were calculated, and the significance level was set at […].
Drug concentrations in plasma and brain were investigated based on the measured radioactivity as previously discussed. Blood samples were collected at 5, 15, 30, 60, and 120 min post-injection (n=6 mice/time interval). Plasma and brain pharmacokinetic parameters were calculated by non-compartmental analysis using the Microsoft Excel Pharmacokinetics add-on. The rate of drug absorption was estimated through maximum plasma/brain concentration (Cmax), time for maximum plasma/brain concentration (Tmax), the extent of drug absorption via the area under the curve from zero to time (AUC0-t), and the area under the curve from zero to infinity (AUC 0-∞). The data in the form of mean values (± SD) of three determinations were statistically analyzed by applying one-way ANOVA using Minitab 17 software. Data was expressed as mean±S.D and analyzed by ANOVA followed by Tukey's test for multiple comparisons. Differences were considered significant when p was less than 0.05. […]

With NS(=O)(=O)Cc1noc2ccccc12 [ZNS, Zonisamide] the “ZNS released in 2 hours” value [1] was 96.9±2.1%, the “tissue distribution of ZNS (brain, liver, kidney, stomach, lungs)” value ([2]; 5-120 min, Fig. 6, result in words) was “minimal distribution in the brain” and the “Brain/Blood Ratio (AUC Brain/AUC Blood)” value ([2]; intranasal) was 0.24. The “LogBB at 15 min” value ([2]; intranasal) was −0.55±0.06, the “LogBB at 15 min” value ([2]; intranasal, listed as free ZNS) was −0.556 and the “LogBB at 120 min” value ([2]; intranasal) was −0.477. For the same molecule, the “AUC(0-120min), blood” value ([2]; intranasal) was 125.25 ± 21.3 %ID/g.min, the “Tmax (min), blood” value ([2]; intranasal) was 15 min and the “Cmax (%ID/g), blood” value ([2]; intranasal) was 1.8 ± 0.7 %ID/g. The “AUC(0-120min), brain” value ([2]; intranasal) was 31 ± 9.6 %ID/g.min, the “Tmax (min), brain” value ([2]; intranasal) was 15 min and the “Cmax (%ID/g), brain” value ([2]; intranasal) was 0.5 ± 0.2 %ID/g. The “LogBB at 15 min” value ([2]; oral) was −0.865, the “LogBB at 120 min” value ([2]; oral) was −1.301 and the “AUC(0-120min), blood” value ([2]; oral) was 77.6 ± 15.3 %ID/g.min. For the same molecule, the “Tmax (min), blood” value ([2]; oral) was 30 min, the “Cmax (%ID/g), blood” value ([2]; oral) was 1.4 ± 0.07 %ID/g and the “AUC(0-120min), brain” value ([2]; oral) was 7.1 ± 3.1 %ID/g.min. For the same molecule, the “Tmax (min), brain” value ([2]; oral) was 15 min, the “Cmax (%ID/g), brain” value ([2]; oral) was 0.2 ± 0.02 %ID/g and the “Brain/Blood Ratio (AUC Brain/AUC Blood)” value ([2]; oral, listed as free ZNS) was 0.09 and 0.091.
